Measured values reported in PubChem BioAssay (NCI).
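Dose response: 5 concentrations. Exposure: 48 h. Format: 96-well plates. Endpoint: linear interpolation; highest concentration if not reached. At the GI50, growth is halved. TGI: concentration producing complete growth inhibition.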

Assays:
Assay in all cases: inhibition of tumour cell growth, NCI panel, 48 h
[1] = test system: SF-539 CNS
[2] = test system: SN12C renal
[3] = test system: EKVX NSCLC
[4] = test system: 786-0 renal
[5] = test system: SK-MEL-2 melanoma
[6] = test system: HL-60(TB) leukemia
[7] = test system: COLO 205 colon
[8] = test system: OVCAR-5 ovarian
[9] = test system: MALME-3M melanoma
[10] = test system: HCT-15 colon

| Structure (SMILES) | TGI [1] | TGI [2] | TGI [3] | TGI [4] | TGI [5] | TGI [6] | TGI [7] | TGI [8] | TGI [9] | TGI [10] | GI50 [1] | GI50 [2] | GI50 [3] | GI50 [4] | GI50 [5] | GI50 [6] | GI50 [8] | GI50 [9] | GI50 [10] | GI50 [7] |
| --- | --- | --- | --- | --- | --- | --- | --- | --- | --- | --- | --- | --- | --- | --- | --- | --- | --- | --- | --- | --- |
| CNC1C(O)C(OC2C(N)CC(N)C(OC3OC(CN)=CCC3N)C2O)OCC1(C)O (centres undefined) | > 100 µM | > 100 µM | > 100 µM | > 100 µM | > 100 µM | > 100 µM | > 100 µM | > 100 µM | > 100 µM | > 100 µM | – | – | – | – | – | – | – | – | – | – |
| CSc1nc(NC2OCC(OC(C)=O)C(OC(C)=O)C2OC(C)=O)c(N=C(C)C(C)=O)c(=O)n1C (centres undefined) | > 100 µM | > 100 µM | > 100 µM | > 100 µM | > 100 µM | > 100 µM | > 100 µM | > 100 µM | > 100 µM | > 100 µM | – | – | – | – | – | – | – | – | – | – |
| O=C(Cc1nc2ccccc2s1)Nc1ccc(Cl)cc1 | > 100 µM | > 100 µM | > 100 µM | > 100 µM | > 100 µM | > 100 µM | > 100 µM | > 100 µM | > 100 µM | – | – | – | – | – | – | – | – | – | – | – |
| CCN(CC)c1ccc(C2CC(c3cc(OC)c(OC)c(OC)c3)=NN2)cc1 (centres undefined) | 2.18 µM | > 100 µM | – | – | > 95.5 µM | 2.7 µM | – | > 100 µM | > 78.7 µM | > 100 µM | 0.29 µM | 0.737 µM | 0.305 µM | 0.303 µM | 6.6 µM | 0.59 µM | 5.12 µM | 14.5 µM | 0.597 µM | – |
| COC(=O)C(Cc1cnc[nH]1)NC(=O)CNC(=O)CCCn1c(=O)c2c3ccccc3n(C)c2n2nnc(-c3ccccc3)c12 (centres undefined) | > 100 µM | > 100 µM | > 100 µM | > 100 µM | > 100 µM | – | > 100 µM | > 100 µM | > 100 µM | > 100 µM | > 100 µM | > 100 µM | > 100 µM | > 100 µM | > 100 µM | – | > 100 µM | > 100 µM | > 100 µM | > 100 µM |
| COc1cc2c3c(c4ccc(OC)c(OC)c4c2cc1OC)CN1CCC[C@@H]1C3 | 0.425 µM | 18 µM | 0.378 µM | 1.78 µM | 0.237 µM | 0.577 µM | – | 17.1 µM | 0.509 µM | 11.4 µM | – | – | – | – | – | – | – | – | – | – |
| Cc1nc2ccccn2c1NC(=O)NNC(=S)Nc1ccc(Br)cc1 | 55.2 µM | > 100 µM | > 100 µM | > 100 µM | > 100 µM | > 100 µM | 84.5 µM | > 100 µM | – | > 100 µM | 22.4 µM | 35.9 µM | 46.4 µM | 41.7 µM | 77.8 µM | 24.4 µM | 32.2 µM | – | 28.8 µM | 29.4 µM |
| Nc1nc(Cl)cc(NCCCCCNc2cc(Cl)nc(N)n2)n1 | > 100 µM | > 100 µM | > 100 µM | > 100 µM | > 100 µM | > 100 µM | > 100 µM | > 100 µM | – | > 100 µM | – | – | – | – | – | – | – | – | – | – |
| CCOC(CCCNCCCn1c2c(c3cc(OC)c(OC)cc3c1=O)C(=O)c1cc3c(cc1-2)OCO3)OCC | – | 10.8 µM | – | 10.6 µM | 14.2 µM | 11.1 µM | 14.5 µM | 17.3 µM | 13.6 µM | 12.3 µM | – | 5.04 µM | – | 4.35 µM | 7.59 µM | 5.25 µM | 10.2 µM | 6.77 µM | 6.1 µM | 7.81 µM |
| CC1=C(C(=O)Nc2ccccc2)C(c2ccc([N+](=O)[O-])cc2)C(C(=O)Nc2ccccc2)=C(C)N1 | 44.9 µM | 79.3 µM | 46.2 µM | 59 µM | 31.4 µM | 34.1 µM | – | > 100 µM | > 100 µM | 50.9 µM | – | – | – | – | – | – | – | – | – | – |
| Nc1ccccc1SC(CC(=O)c1ccccc1)c1ccc([N+](=O)[O-])cc1 (centres undefined) | 31.1 µM | 23.8 µM | – | 31 µM | 33 µM | 35.2 µM | 31.2 µM | 30.6 µM | 30.3 µM | 22.4 µM | 17.2 µM | 11.6 µM | – | 17.2 µM | 18 µM | 12.6 µM | 16.6 µM | 15.3 µM | 8.51 µM | 16.7 µM |
| O=Cc1ccc(-c2ccc(-c3nc4ccccc4[nH]3)cc2)s1 | – | 92.2 µM | 87 µM | 62.2 µM | > 100 µM | > 100 µM | – | > 100 µM | – | 53.3 µM | – | 31.6 µM | 24 µM | 19 µM | 42 µM | 47.1 µM | 37 µM | – | 19.1 µM | – |
| CCNCCC1(CC)C(=O)NC(=O)NC1=O | > 100 µM | > 100 µM | > 100 µM | > 100 µM | > 100 µM | – | > 100 µM | > 100 µM | > 100 µM | > 100 µM | – | – | – | – | – | – | – | – | – | – |
| C#Cc1c(C)c(/C=C/C(C)=C/C=C/C(C)=C/C(=O)OC)n(C)c1C | > 100 µM | – | > 100 µM | > 100 µM | > 100 µM | > 100 µM | > 100 µM | > 100 µM | > 100 µM | > 100 µM | – | – | – | – | – | – | – | – | – | – |
| CN(C)c1ncnc2c1Cc1ccccc1C(=O)N2C | > 100 µM | > 100 µM | > 100 µM | > 100 µM | > 100 µM | > 100 µM | > 100 µM | > 100 µM | > 100 µM | – | – | – | – | – | – | – | – | – | – | – |
| O=C(CSc1nc2ccccc2nc1-c1ccccc1)Nc1ccc(Cl)cc1 | 36.6 µM | 99.2 µM | > 100 µM | 32.3 µM | > 100 µM | – | > 100 µM | > 100 µM | 78 µM | > 100 µM | 16.3 µM | 22.6 µM | 49.5 µM | 16 µM | 51.7 µM | – | > 100 µM | 27.2 µM | 76.7 µM | > 100 µM |
| COc1cc2c(c(OC)c1O)-c1ccc(OC)c(=O)cc1[C@@H](NC(=O)C(F)(F)F)CC2 | 0.087 µM | > 100 µM | > 100 µM | > 100 µM | – | 2.55 µM | 0.0933 µM | > 100 µM | > 100 µM | > 100 µM | – | – | – | – | – | – | – | – | – | – |
| COCc1c(CO)cnc(C)c1OC1OC(CO)C(O)C(O)C1O (centres undefined) | > 100 µM | > 100 µM | > 100 µM | > 100 µM | > 100 µM | – | – | > 100 µM | > 100 µM | > 100 µM | – | – | – | – | – | – | – | – | – | – |
| COc1ccc(CCN2CCCN3C2=Nc2ccccc2S3(=O)=O)cc1 | 1.04 µM | > 100 µM | > 100 µM | > 100 µM | > 100 µM | – | 1.48 µM | > 100 µM | – | > 100 µM | 0.272 µM | 0.707 µM | 18.8 µM | 0.651 µM | 0.521 µM | – | 20.2 µM | – | 0.342 µM | 0.329 µM |
